Measured values from patent US20140271723A1 (priority 2013, published 2014).

Test system: pseudorabies virus (PRV)
Set-up: species or system pigs
Conditions: pig, in vivo

Sequence	protection from mortality caused by challenge with virulent PRV
KKSVRGKGKGQKRKRKKSRYKSWSV [VEGF peptide]	protected the animals from mortality
YVRVRRPPKGKHRKFKHTH [PDGF peptide]	protected the animals from mortality
